Reference: publication PMC12055592, “Post-symptomatic NLRP3 inhibition rescues cognitive impairment and mitigates amyloid and tau driven neurodegeneration” (Npj Dementia, 2025)

Tests used:
[1] = system: NLRP3 inflammasome, IL-18 in iPSC-derived microglia; test: iPSC-derived microglia in vitro assay, secreted IL-18; type: cell-based; details: geometric mean, n = 5
Experimental: iPSC-derived microglia (BX-0900, BrainXell, Madison, WI) were thawed and recovered as per the supplier’s instructions. Briefly, viable cells were counted post-thaw using Trypan Blue, 0.4% (Thermo Fisher Scientific) and 25,000 cells were seeded on poly-d-lysine coated 96-well plates in DMEM-F/12 medium (Thermo Fisher Scientific) supplemented with 1X B-27 supplement (Thermo Fisher Scientific), 1X N-2 supplement (Thermo Fisher Scientific), 1X Non-essential amino acids (Thermo Fisher Scientific), 1X Chemically defined lipid mix (Thermo Fisher Scientific), 1 mM GlutaMax (Thermo Fisher Scientific), 0.2 mM Ascorbic Acid (Millipore), 100 ng/mL IL-34 (PeproTech, Cranbury, NJ), 2 ng/mL TGF-β1 (PeproTech) and 20 ng/mL M-CSF (PeproTech). Fresh media was added 3 days after seeding, half of which was replenished with fresh media 6 days following seeding. The assay was performed 7 days after cells were seeded in 96-well plates. Two assay protocol variations were performed: cells were either pre-treated with VEN-02XX to block NLRP3 inflammasome formation and then primed with LPS (Fig. 1, D. Compound added before LPS priming) or were primed with LPS and then treated with VEN-02XX (Fig. 1, D. Compound added after LPS priming). For compound treatment, cells were treated with VEN-02XX for 1 h (top concentration 100 µM; 3-fold titration) to block NLRP3 inflammasome formation. […]

[2] = Mouse brain pharmacokinetic study (brain-to-plasma partition); type: in vivo; details: male, single oral dose 20 mg/kg
Experimental: Five groups of n = 3 male CD1 mice (weight 20–30 g, age 6–8 weeks old) were dosed by oral gavage with 20 mg/kg of VEN-02XX suspended in 0.5% w/v methylcellulose/0.1% w/v Tween 80, at a dose volume of 10 mL/kg. Food and water were available ad libitum to all animals. At a specific timepoint for each group (0.25, 1, 2, 4, and 8 h), 0.2 mL of blood was collected from the dorsal metatarsal vein and transferred into plastic micro centrifuge tubes with EDTA-K2 as anticoagulant, then animals were terminally anaesthetized with a rising concentration of CO2 gas for about 1 min, brains were collected and rinsed with cold PBS. […]
Concentrations of VEN-02XX in plasma and brain were determined by a LC-MS/MS assay. […] Two transitions were monitored for VEN-02XX and the more sensitive transition with less interference (397.1 –> 270.1) was used for quantification.
Pharmacokinetic parameters were determined by non-compartmental analysis using WinNonLin software (Phoenix^TM, version 8.3), and the following parameters were calculated from the plasma concentrations versus time data: T1/2, Cmax, Tmax, AUCinf, AUClast. When appropriate, the brain Kp was calculated as AUClast(brain)/AUClast(plasma). Free brain partition coefficient (Kpuu) was calculated using the free fraction in plasma and brain measured in a high throughput equilibrium dialysis assay.

human NLRP3 = human NLRP3 (Homo sapiens, UniProt Q96P20); test: SPR analysis of interaction with human NLRP3; type: binding
Experimental: VEN-02XX was profiled in vitro to confirm specific binding to human NLRP3 as well as activity in various cellular assays.
The human NLRP3 protein was immobilized onto a nickel-NTA surface (Xantec NiHC1500M). Assay was run in 25 mM HEPES pH 7.5, 150 mM NaCl, 5 mM MgCl2, 0.5 mM TCEP, 0.5 mM ADP, 0.05% Tween-20 and 1% DMSO at 25 °C. Single-cycle method was used, and compound was injected over surface with a contact time of 120 s on and 600 s off by Biocore 8 K machine (Cytiva). A 5-points solvent correction curve was run pre and post run to correct for refractive index of DMSO. Data was then analyzed using the Biacore evaluation software to report binding kinetic parameters.

Chain of human NLRP3 (Q96P20 whole entry): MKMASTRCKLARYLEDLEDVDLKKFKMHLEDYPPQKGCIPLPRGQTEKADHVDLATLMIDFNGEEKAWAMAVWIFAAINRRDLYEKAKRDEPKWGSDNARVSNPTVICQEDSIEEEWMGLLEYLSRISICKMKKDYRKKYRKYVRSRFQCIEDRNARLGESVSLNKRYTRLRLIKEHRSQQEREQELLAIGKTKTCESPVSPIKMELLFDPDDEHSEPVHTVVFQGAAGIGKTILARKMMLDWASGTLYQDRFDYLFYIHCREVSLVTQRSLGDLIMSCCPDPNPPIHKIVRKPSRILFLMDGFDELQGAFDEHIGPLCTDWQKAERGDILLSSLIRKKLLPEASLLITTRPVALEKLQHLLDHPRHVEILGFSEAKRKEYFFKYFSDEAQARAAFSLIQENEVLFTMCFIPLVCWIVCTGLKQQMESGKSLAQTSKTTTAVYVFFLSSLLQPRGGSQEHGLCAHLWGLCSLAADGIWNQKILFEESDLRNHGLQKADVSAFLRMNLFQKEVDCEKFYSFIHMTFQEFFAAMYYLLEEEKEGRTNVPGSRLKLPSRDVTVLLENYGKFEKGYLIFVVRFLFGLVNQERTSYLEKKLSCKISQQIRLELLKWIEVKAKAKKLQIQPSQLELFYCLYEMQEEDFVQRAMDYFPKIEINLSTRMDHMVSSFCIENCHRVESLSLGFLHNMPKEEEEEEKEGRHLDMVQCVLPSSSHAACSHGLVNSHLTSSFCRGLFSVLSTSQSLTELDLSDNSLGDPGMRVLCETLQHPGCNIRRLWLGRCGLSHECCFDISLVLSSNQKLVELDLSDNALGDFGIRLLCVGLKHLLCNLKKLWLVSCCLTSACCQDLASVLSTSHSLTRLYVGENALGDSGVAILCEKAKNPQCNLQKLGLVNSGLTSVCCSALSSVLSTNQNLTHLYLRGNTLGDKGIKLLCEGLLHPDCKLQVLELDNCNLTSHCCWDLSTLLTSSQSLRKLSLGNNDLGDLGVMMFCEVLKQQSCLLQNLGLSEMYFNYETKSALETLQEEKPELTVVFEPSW

CC(C)(O)CNc1nnc(-c2ccc(Cl)cc2C(F)(F)F)c2ccncc12 [VEN-02XX]
IC50 ([1]; compound added after LPS priming): 220 nM
IC50 ([1]; compound added before LPS priming): 280 nM
Kp ([2]; CD1, brain and plasma (total), AUClast (total drug), read-out: total brain-to-plasma partition coefficient, Kp): 0.86
Kp uu ([2]; CD1, brain and plasma (unbound), AUClast (free drug), read-out: unbound brain-to-plasma partition coefficient, Kp,uu brain): 0.39
Kd (human NLRP3; human NLRP3): 93.3 nM
residence time (human NLRP3; human NLRP3, read-out: residence time (1/kd) (converted)): 12.9 min
kon (human NLRP3; pH 7.5, 1:1 binding, read-out: ka): 13800 M⁻¹ s⁻¹
